CC(=O)O[C@H]1NC(=O)[C@@H]1[C@@H](C)O[Si](C)(C)C(C)(C)C
solubility (mole fraction)
Details | 293.15 K | 298.15 K | 303.15 K | 308.15 K | 313.15 K | 318.15 K | 323.15 K | 328.15 K | 333.15 K
in THF | 0.238 | 0.242 | 0.251 | 0.264 | 0.278 | 0.3 | 0.323 | 0.342 | 0.368
in acetone | 0.147 | 0.166 | 0.186 | 0.203 | 0.218 | 0.233 | 0.244 | 0.254 | 0.259
in acetonitrile | 0.0493 | 0.0629 | 0.0792 | 0.0963 | 0.114 | 0.132 | 0.15 | 0.166 | 0.184
in chloroform | 0.258 | 0.266 | 0.276 | 0.291 | 0.308 | 0.325 | 0.347 | 0.371 | 0.403
in cyclohexane | 0.0028 | 0.00408 | 0.00582 | 0.00838 | 0.0116 | 0.0163 | 0.0223 | 0.0306 | 0.0413
in ethanol | 0.0492 | 0.0601 | 0.072 | 0.0859 | 0.104 | 0.121 | 0.145 | 0.17 | 0.2
in ethyl acetate | 0.159 | 0.179 | 0.198 | 0.216 | 0.24 | 0.264 | 0.294 | 0.326 | 0.356
in methanol | 0.0593 | 0.069 | 0.0809 | 0.0959 | 0.113 | 0.134 | 0.161 | 0.193 | 0.233
in n-butyl acetate | 0.13 | 0.145 | 0.163 | 0.18 | 0.199 | 0.221 | 0.251 | 0.288 | 0.326
in n-hexane | 0.00287 | 0.00411 | 0.00577 | 0.00813 | 0.0116 | 0.0161 | 0.022 | 0.0305 | 0.0422
in toluene | 0.0796 | 0.096 | 0.116 | 0.141 | 0.163 | 0.186 | 0.209 | 0.238 | 0.265
